Test: log P (octanol/water) of tracer anions
Type: physicochemical
Conditions: log of ratio of equilibrium concentration in oil (octanol) to that in water, representative example values
From the text: The invention concerns the use of halogenated thiophene carboxylic acids or halogenated thiophene sulfonic acids, or salts of either, in tracing applications in hydrocarbon wells. Such compounds are not naturally found in hydrocarbon wells and formations and have not been previously used as tracers in such wells and formations. Tracers comprising such compounds may therefore be used as tracers in such wells and formations without the results of the tracing being affected by contamination. Moreover, the applicant has determined that non-halogenated thiophene compounds exist naturally in hydrocarbon formations and the compounds of the invention are therefore expected to be sufficiently stable, for example to have sufficient thermal stability, to survive the conditions in a hydrocarbon well. Since, unlike the naturally occurring thiophene compounds, the compounds of formula 1 are halogenated they are advantageously also detectable, for example using GC-MS, in very low concentrations, for example concentrations of 1 ppb or less, preferably concentrations of 100 ppt or less, more preferably concentrations of 10 ppt or less and yet more preferably concentrations of 1 ppt or less. The compounds of the invention may also show a high selectivity towards water instead of oil. Thus the tracer may be a water tracer. […] The log P value is a well-known value for characterising the preference of a compound for water or oil. The value is the log of the ratio of the equilibrium concentration of the compound in oil (octanol) to the equilibrium concentration of the compound in water. Thus the concentration of the compound in water is preferably at least 10 times, and more preferably at least 100 times, that of the compound in oil. It may be that the salt of the compound (or the anion of the salt) is more soluble in water than the acid. For that reason, it is preferable to use the salt as the tracer.

Compound | logP
O=C(O)c1csc(F)c1 | -1.81
O=C(O)c1csc(Cl)c1 | -1.35
Cc1cc(C(=O)O)sc1F | -1.16

— patent US20180282605A1, “METHOD OF MONITORING A PARAMETER OF A HYDROCARBON WELL, PIPELINE OR FORMATION” (JOHNSON MATTHEY PUBLIC LIMITHED COMPANY, priority 2015, published 2018)
